IC50 data for 25 molecules are collected here from patent US20240025884A1 (Dong-A ST Co., Ltd., priority 2022, published 2024).

A value given as a limit tells only on which side of the number the result lay.

The target in the assay is GCN2 (Homo sapiens (Human), UniProt Q9P2K8). Kind of assay: GCN2 Biochemical Assay (TR-FRET, GFP-eIF2S1 substrate phosphorylation). The following applies: read-out: IC50 (GCN2 Inhibitory Activity). In a few lines:
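TR-FRET readout (Ex 340, Em 490/520 nm) after 2–3 h with Tb-labelled phospho-eIF2S1 antibody in stop mix, following a 70 min room-temperature kinase step. Reaction: in-house GCN2, GFP-eIF2S1, ATP, tRNA in Tris pH 7.5 (2× stocks 1.6 nM, 50 nM, 0.2 mM); compounds tested at 10 concentrations, with a phospho-substrate artifact counter-plate.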
For orientation: TR-FRET usually uses a lanthanide donor and a delayed reading to cut background.

Chain of GCN2 (Q9P2K8 whole entry): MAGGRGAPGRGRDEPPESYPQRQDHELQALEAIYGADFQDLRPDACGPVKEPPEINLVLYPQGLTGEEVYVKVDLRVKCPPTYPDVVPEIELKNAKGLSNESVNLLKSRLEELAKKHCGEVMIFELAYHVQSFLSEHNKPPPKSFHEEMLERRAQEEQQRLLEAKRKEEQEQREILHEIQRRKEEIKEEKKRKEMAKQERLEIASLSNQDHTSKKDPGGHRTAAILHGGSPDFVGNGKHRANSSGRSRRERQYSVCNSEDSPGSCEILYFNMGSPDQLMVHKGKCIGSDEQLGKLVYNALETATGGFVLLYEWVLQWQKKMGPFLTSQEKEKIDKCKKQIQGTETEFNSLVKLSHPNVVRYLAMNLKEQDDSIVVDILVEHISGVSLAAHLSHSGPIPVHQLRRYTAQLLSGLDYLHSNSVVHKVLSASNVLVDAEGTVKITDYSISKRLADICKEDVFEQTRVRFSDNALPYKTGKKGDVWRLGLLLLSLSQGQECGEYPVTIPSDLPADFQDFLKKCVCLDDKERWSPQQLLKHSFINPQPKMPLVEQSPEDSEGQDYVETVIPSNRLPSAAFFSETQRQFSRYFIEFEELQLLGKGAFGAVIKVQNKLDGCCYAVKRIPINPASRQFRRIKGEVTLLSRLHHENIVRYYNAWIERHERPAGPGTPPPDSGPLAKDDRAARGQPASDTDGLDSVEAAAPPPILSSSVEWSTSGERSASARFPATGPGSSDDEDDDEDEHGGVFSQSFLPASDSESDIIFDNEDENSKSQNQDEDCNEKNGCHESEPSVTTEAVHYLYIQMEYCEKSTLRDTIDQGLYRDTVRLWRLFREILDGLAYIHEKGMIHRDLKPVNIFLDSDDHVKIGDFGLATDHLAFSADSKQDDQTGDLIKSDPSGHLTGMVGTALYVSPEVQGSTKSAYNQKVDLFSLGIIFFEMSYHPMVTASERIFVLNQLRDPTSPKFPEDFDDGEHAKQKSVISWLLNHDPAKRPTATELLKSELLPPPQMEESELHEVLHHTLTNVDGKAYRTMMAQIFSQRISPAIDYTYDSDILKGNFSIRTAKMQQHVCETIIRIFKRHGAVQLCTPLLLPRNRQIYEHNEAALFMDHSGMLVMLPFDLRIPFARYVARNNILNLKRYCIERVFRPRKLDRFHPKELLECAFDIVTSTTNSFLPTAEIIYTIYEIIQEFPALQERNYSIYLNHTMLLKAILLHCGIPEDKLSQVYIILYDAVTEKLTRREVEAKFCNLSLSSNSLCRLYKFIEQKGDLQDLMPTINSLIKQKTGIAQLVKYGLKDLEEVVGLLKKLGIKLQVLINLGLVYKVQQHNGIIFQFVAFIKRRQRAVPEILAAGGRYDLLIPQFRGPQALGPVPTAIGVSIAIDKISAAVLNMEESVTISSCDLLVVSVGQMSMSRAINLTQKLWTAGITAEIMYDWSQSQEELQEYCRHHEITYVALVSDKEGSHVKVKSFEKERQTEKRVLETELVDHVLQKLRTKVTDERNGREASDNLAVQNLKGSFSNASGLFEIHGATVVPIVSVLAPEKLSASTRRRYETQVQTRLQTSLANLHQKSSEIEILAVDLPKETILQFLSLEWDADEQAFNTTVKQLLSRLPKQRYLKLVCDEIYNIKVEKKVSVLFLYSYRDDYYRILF

As a reminder, the IC50 is the concentration that gives 50% inhibition. As to `CCNc1nccc(O[C@H]2CCN(CC(=O)Nc3cccc4c(-c5nc(Nc6cc(C)n(C)n6)ncc5C)c[nH]c34)C2)n1` [Example 203, (S)-N-(3-(2-((1,5-dimethyl-1H-pyrazol-3-yl)amino)-5-methylpyrimidin-4-yl)-1H-indol-7-yl)-2-(3-((2-(ethylamino)pyrimidin-4-yl)oxy)pyrrolidin-1-yl)acetamide], the IC50 was under 10 nM.

As to `COc1nccc(O[C@H]2CCN(CC(=O)Nc3cccc4c(-c5nc(Nc6cc(C)n(C)n6)ncc5C)c[nH]c34)C2)n1` [Example 194, (S)-N-(3-(2-((1,5-dimethyl-1H-pyrazol-3-yl)amino)-5-methylpyrimidin-4-yl)-1H-indol-7-yl)-2-(3-((2-methoxypyrimidin-4-yl)oxy)pyrrolidin-1-yl)acetamide], the half-maximal inhibitory concentration (IC50) is under 10 nM.

Consider `Cc1cnc(Nc2cc(C)n(C)n2)nc1-c1c[nH]c2c(N3Cc4c(cccc4-c4cncc(N)c4)C3=O)cccc12` [Example 419, 4-(5-aminopyridin-3-yl)-2-(3-(2-((1,5-dimethyl-1H-pyrazol-3-yl)amino)-5-methylpyrimidin-4-yl)-1H-indol-7-yl)isoindolin-1-one], for which the half-inhibitory concentration (IC50) was under 10 nM. Next, `Cc1cc(Nc2ncc(Cl)c(-c3c[nH]c4c(NC(=O)CN5CC[C@H](Oc6ccncc6)C5)cccc34)n2)nn1C` [Example 9, (S)-N-(3-(5-chloro-2-((1,5-dimethyl-1H-pyrazol-3-yl)amino)pyrimidin-4-yl)-1H-indol-7-yl)-2-(3-(pyridin-4-yloxy)pyrrolidin-1-yl)acetamide]: under 10 nM. Next, `Cc1cnc(Nc2cc(C)n(C)n2)nc1-c1c[nH]c2c(N3Cc4c(cccc4C4=CCN(C(=O)OC(C)(C)C)CC4)C3=O)cccc12` [Example 397, tert-butyl 4-(2-(3-(2-((1,5-dimethyl-1H-pyrazol-3-yl)amino)-5-methylpyrimidin-4-yl)-1H-indol-7-yl)-1-oxoisoindolin-4-yl)-3,6-dihydropyridine-1(2H)-carboxylat]: under 10 nM; `Cc1cnc(Nc2cc(C)n(C)n2)nc1-c1c[nH]c2c(NC(=O)CN3CC[C@@H](Oc4ccncc4)C3)cccc12` [Example 77, (R)-N-(3-(2-((1,5-dimethyl-1H-pyrazol-3-yl)amino)-5-methylpyrimidin-4-yl)-1H-indol-7-yl)-2-(3-(pyridin-4-yloxy)pyrrolidin-1-yl)acetamide]: 10 to 100 nM; `Cc1cnc(Nc2cc(C)n(C)n2)nc1-c1c[nH]c2c(NC(=O)CN3CC[C@H](Oc4cc(NC5CCCCC5)ncn4)C3)cccc12` [Example 152, (S)-2-(3-((6-(cyclohexylamino)pyrimidin-4-yl)oxy)pyrrolidin-1-yl)-N-(3-(2-((1,5-dimethyl-1H-pyrazol-3-yl)amino)-5-methylpyrimidin-4-yl)-1H-indol-7-yl)acetamide]: 10 to 100 nM. Next, `CNc1ccc(-c2ccncc2)c2c1C(=O)N(c1cccc3c(-c4nc(Nc5cc(C)n(C)n5)ncc4C)c[nH]c13)C2` [Example 491, 2-(3-(2-((1,5-dimethyl-1H-pyrazol-3-yl)amino)-5-methylpyrimidin-4-yl)-1H-indol-7-yl)-7-(methylamino)-4-(pyridin-4-yl)isoindolin-1-one]: 100 to 1000 nM; `CCC(C)Nc1nccc(O[C@H]2CCN(CC(=O)Nc3cccc4c(-c5nc(Nc6cc(C)n(C)n6)ncc5C)c[nH]c34)C2)n1` (stereo partly drawn) [Example 212, 2-((3S)-3-((2-(sec-butylamino)pyrimidin-4-yl)oxy)pyrrolidin-1-yl)-N-(3-(2-((1,5-dimethyl-1H-pyrazol-3-yl)amino)-5-methylpyrimidin-4-yl)-1H-indol-7-yl)acetamide]: under 10 nM. With `Cc1cnc(Nc2cc(C)n(C)n2)nc1-c1c[nH]c2c(NC(=O)CN3CC[C@H](Oc4ccnc(NC5CCCC5)n4)C3)cccc12` [Example 209, (S)-2-(3-((2-(cyclopentylamino)pyrimidin-4-yl)oxy)pyrrolidin-1-yl)-N-(3-(2-((1,5-dimethyl-1H-pyrazol-3-yl)amino)-5-methylpyrimidin-4-yl)-1H-indol-7-yl)acetamide], the half-maximal inhibitory concentration (IC50) is 10 to 100 nM. With `Cc1cnc(Nc2cc(C)n(C)n2)nc1-c1c[nH]c2c(N3Cc4c(/C=C/C(=O)NCCO)cccc4C3=O)cccc12` [Example 372, (E)-3-(2-(3-(2-((1,5-dimethyl-1H-pyrazol-3-yl)amino)-5-methylpyrimidin-4-yl)-1H-indol-7-yl)-1-oxoisoindolin-4-yl)-N-(2-hydroxyethyl)acrylamide] the figure was under 10 nM; with `Cc1cnc(Nc2cc(C)n(C)n2)nc1-c1c[nH]c2c(NC(=O)CN3CC[C@H](Oc4nc(NC5CC5)ncc4F)C3)cccc12` [Example 227, (S)-2-(3-((2-(cyclopropylamino)-5-fluoropyrimidin-4-yl)oxy)pyrrolidin-1-yl)-N-(3-(2-((1,5-dimethyl-1H-pyrazol-3-yl)amino)-5-methylpyrimidin-4-yl)-1H-indol-7-yl)acetamide], under 10 nM. With `Cc1cnc(Nc2cc(C)n(C)n2)nc1-c1c[nH]c2c(NC(=O)CN3CC[C@H](Oc4ccsc4C(N)=O)C3)cccc12` [Example 109, (S)-3-((1-(2-((3-(2-((1,5-dimethyl-1H-pyrazol-3-yl)amino)-5-methylpyrimidin-4-yl)-1H-indol-7-yl)amino)-2-oxoethyl)pyrrolidin-3-yl)oxy)thiophene-2-carboxamide] the figure was under 10 nM; with `Cc1cnc(Nc2cc(C)n(C)n2)nc1-c1c[nH]c2c(NC(=O)CN3CC(OCc4ccncc4)C3)cccc12` [Example 27, N-(3-(2-((1,5-dimethyl-1H-pyrazol-3-yl)amino)-5-methylpyrimidin-4-yl)-1H-indol-7-yl)-2-(3-(pyridin-4-ylmethoxy)azetidin-1-yl)acetamide], 10 to 100 nM. For `Cc1cnc(Nc2cc(C)n(C)n2)nc1-c1c[nH]c2c(NC(=O)CN3CC[C@H](Oc4ccnc(NCCCN(C)C)n4)C3)cccc12` [Example 218, (S)-N-(3-(2-((1,5-dimethyl-1H-pyrazol-3-yl)amino)-5-methylpyrimidin-4-yl)-1H-indol-7-yl)-2-(3-((2-((3-(dimethylamino)propyl)amino)pyrimidin-4-yl)oxy)pyrrolidin-1-yl)acetamide], the IC50 was under 10 nM. Consider `CSc1nccc(O[C@H]2CCN(CC(=O)Nc3cccc4c(-c5nc(Nc6cc(C)n(C)n6)ncc5C)c[nH]c34)C2)n1` [Example 193, (S)-N-(3-(2-((1,5-dimethyl-1H-pyrazol-3-yl)amino)-5-methylpyrimidin-4-yl)-1H-indol-7-yl)-2-(3-((2-(methylthio)pyrimidin-4-yl)oxy)pyrrolidin-1-yl)acetamide], for which the half-maximal inhibitory concentration (IC50) was under 10 nM. With `COc1cc(-c2cccc3c2CN(c2cccc4c(-c5nc(Nc6cc(C)n(C)n6)ncc5C)c[nH]c24)C3=O)ccn1` [Example 445, 2-(3-(2-((1,5-dimethyl-1H-pyrazol-3-yl)amino)-5-methylpyrimidin-4-yl)-1H-indol-7-yl)-4-(2-methoxypyridin-4-yl)isoindolin-1-one] the figure was under 10 nM; with `CC(=O)N1CC=C(c2cccc3c2CN(c2cccc4c(-c5nc(Nc6cc(C)n(C)n6)ncc5C)c[nH]c24)C3=O)CC1` [Example 466, 4-(1-acetyl-1,2,3,6-tetrahydropyridin-4-yl)-2-(3-(2-((1,5-dimethyl-1H-pyrazol-3-yl)amino)-5-methylpyrimidin-4-yl)-1H-indol-7-yl)isoindolin-1-one], under 10 nM; with `Cc1cnc(Nc2cc(C)n(C)n2)nc1-c1c[nH]c2c(NC(=O)CN3CC[C@H](Oc4cc(NCc5ccccc5)ncn4)C3)cccc12` [Example 149, (S)-2-(3-((6-(benzylamino)pyrimidin-4-yl)oxy)pyrrolidin-1-yl)-N-(3-(2-((1,5-dimethyl-1H-pyrazol-3-yl)amino)-5-methylpyrimidin-4-yl)-1H-indol-7-yl)acetamide], under 10 nM.

In the case of `Cc1cnc(Nc2cc(C)n(C)n2)nc1-c1c[nH]c2c(NC(=O)CN3CC[C@H](Oc4ncc(C(=O)NC5CC5)o4)C3)cccc12` [Example 126, (S)-N-cyclopropyl-2-((1-(2-((3-(2-((1,5-dimethyl-1H-pyrazol-3-yl)amino)-5-methylpyrimidin-4-yl)-1H-indol-7-yl)amino)-2-oxoethyl)pyrrolidin-3-yl)oxy)oxazole-5-carboxamide], the IC50 was 10 to 100 nM. For `Cc1cnc(Nc2cc(C)n(C)n2)nc1-c1c[nH]c2c(NC(=O)C(C)(C)N3CC[C@H](Oc4ccncc4)C3)cccc12` [Example 25, (S)-N-(3-(2-((1,5-dimethyl-1H-pyrazol-3-yl)amino)-5-methylpyrimidin-4-yl)-1H-indol-7-yl)-2-methyl-2-(3-(pyridin-4-yloxy)pyrrolidin-1-yl)propanamide], the half-inhibitory concentration (IC50) is over 1000 nM. With `COCCNc1cc(O[C@H]2CCN(CC(=O)Nc3cccc4c(-c5nc(Nc6cc(C)n(C)n6)ncc5C)c[nH]c34)C2)ncn1` [Example 147, (S)-N-(3-(2-((1,5-dimethyl-1H-pyrazol-3-yl)amino)-5-methylpyrimidin-4-yl)-1H-indol-7-yl)-2-(3-((6-((2-methoxyethyl)amino)pyrimidin-4-yl)oxy)pyrrolidin-1-yl)acetamide] the figure was under 10 nM; with `Cc1cnc(Nc2cc(C)n(C)n2)nc1-c1c[nH]c2c(N3C(=O)c4cccc(F)c4C3=O)cccc12` [Example 261, 2-(3-(2-((1,5-dimethyl-1H-pyrazol-3-yl)amino)-5-methylpyrimidin-4-yl)-1H-indol-7-yl)-4-fluoroisoindoline-1,3-dione], under 10 nM. Next, `Cc1cnc(Nc2cc(C)n(C)n2)nc1-c1c[nH]c2c(N3Cc4cccc(Br)c4C3=O)cccc12` [Example 277, 7-bromo-2-(3-(2-((1,5-dimethyl-1H-pyrazol-3-yl)amino)-5-methylpyrimidin-4-yl)-1H-indol-7-yl)isoindolin-1-one]: 10 to 100 nM.

With `Cc1cnc(Nc2cc(C)n(C)n2)nc1-c1c[nH]c2c(NC(=O)CN3CC[C@H](Oc4cnccn4)C3)cccc12` [Example 79, (S)-N-(3-(2-((1,5-dimethyl-1H-pyrazol-3-yl)amino)-5-methylpyrimidin-4-yl)-1H-indol-7-yl)-2-(3-(pyrazin-2-yloxy)pyrrolidin-1-yl)acetamide], the IC50 was under 10 nM.
